In US4079140A, “Benzothienyl aminoethyl ketones and their application in therapeutics” (Innothera, priority 1975, dated 1978):
≈ marks a conversion by molar mass, not a printed value. Where “and” joins values, the source holds several entries; their conditions need not be identical. Identical values can stand only once. Counter-ions that a name gives are not always drawn. Like-named read-outs stand apart in the source and are kept apart here.

How the values were obtained:
human blood-plaques = assay: Blood-plaque aggregation inhibition in B.P.R.P. (D.P.A., adrenaline, collagene); details: for a(X): blood-plaque aggregation inhibiting activity, Adrenaline / a(X): blood-plaque aggregation inhibiting activity, D.P.A.: compound 2.5 × 10^-5 g/ml; for ratio of activities a(X)/a(R), Adrenaline / ratio of activities a(X)/a(R), D.P.A.: X 2.5 × 10^-5 g/ml vs Dipyridamole 5 × 10^-4 g/ml; for ratio of activities a(X)/a(R), Adrenaline: head is drawing 15; for a(X): blood-plaque aggregation inhibiting activity, Collagene: compound 2 × 10^-5 g/ml; for ratio of activities a(X)/a(R), Collagene: X 2 × 10^-5 g/ml vs Dipyridamole 2 × 10^-4 g/ml, head is drawing 16; for ratio of activities a(X)/a(R), D.P.A.: head is drawing 13
[1] = Acute oral toxicity (LD 50), Miller and Tainter; details: mouse, in vivo; for LD50 at 168 h: mice deprived of food 18 hours, oral (esophageal probe), mortality followed seven days, read-out: LD 50 (50% lethal dose)
Description: Acute toxicity of compounds of formula (I) was measured orally (esophageal probe) on mice deprived of food 18 hours before the beginning of the test. The products were suspended in a solution of dilute carboxymethyl cellulose. Calculation of the 50% lethal dose was carried out according to the method of Miller and Tainter (Miller L. C., Tainter M. L., proc. Soc. Exptl. Biol. Med. 1944, 57, 261-264).
The mortality rate was checked for seven days following the treatment.

[2] = tested on: phenylparaquinone (P.P.Q.) painful syndrome in mouse; assay: Analgesic and anti-inflammatory activity (P.P.Q. painful syndrome); assay type: in vivo; details: for a (X): percentage activity, P.P.Q.: 50 mg/kg digestively; for ratio of activity of X in relation to R, P.P.Q.: X 50 mg/kg vs Glafenine 25 mg/kg, 0.5 = half the activity of reference, head is drawing 19
Description: The intraperitoneal injection of phenylparaquinone (P.P.Q.) to a mouse causes the appearance of a painful syndrome appearing within 5 minutes of the injection and disappearing after about 30 minutes (Siegmund E. A., Cadmus A., Lu G., J. Pharmacol. Exp. Therap. 1957, 119, 453).
This painful syndrome manifests itself in the animal by a series of characteristic crises more or less close together and fleeting, during which can be noted a twisting or stretching of the body, a hollowing of the sides and a stretching of the hind legs.
It is then possible to note the number of crises in a given interval of time.
The preventive administration of analgesic or anti-inflammatory substances prevents the appearance of the crises and reduces the frequence thereof.
The reference substance used in the tests (R) is the ester of N-(7-chloro-4-quinolyl) anthrilic acid and 2,3-dihydroxy n. propanol (known under the trademark "Glafenine").
It is administered orally as a dose of 25 mg/kg.
The compounds of formula I (X) were administered digestively as a dose of 50 mg/kg.
The interval of time (t) chosen for calculating the analgesic activity was between 10 and 15 minutes after injection of P.P.Q. which is the period of maximum frequency of the crises. This activity was expressed in the following manner;
n: the number of crises observed in controle mice;
n': the number of crises observed in mice previously treated with the reference substance (R);
n": the number of crises observed in mice having received substance (X)
The percentage activity of R is equal to: [formula] The percentage activity of X is equal to: [formula] The activity of X in relation to R is estimated by the ratio: [formula]

[3] = tested on: isolated heart of a guinea-pig; assay: Vasodilatatory activity, coronary flow of isolated perfused heart; details: for activation at 10 µg/mL: Cavia porcellus, compound 1 × 10^-5 g/ml, Locke solution, 37° C, at climax of activity, read-out: P (X): percentage of coronary flow increase; for ratio P (X)/P (R): X and Dipyridamole both 1 × 10^-5 g/ml, head is drawing 21
Description: The percentage of flow increase (P) is calculated at the climax of the activity of X or R.

rat's isolated duodenum = assay: Spasmolytic activity on isolated duodenum, barium chloride contraction (Magnus); details: for relative activity, ratio of ED 50 (papaverine hydrochloride = R): 2 = twice the activity of papaverine hydrochloride, head is drawing 18; for IC50: Rattus norvegicus
Description: Spasmolytic activity was studied on a rat's isolated duodenum maintained in a survival medium of an aerated Tyrode solution heated to 38° C, according to the technique of Magnus (Magnus R. -- Archiv. ges. Physiol., 1905, 180, 1-71).
The contracting agent was barium chloride, the reference antagonist agent being papaverine hydrochloride (R). The average activity of compounds of formula I (X) compared to that of the reference agent were expressed by calculating the ratio of 50 efficient doses (ED 50) determined graphically on logarithmic paper: [formula]
For example: a substance having a relative activity expressed by the figure 2 has an activity equal to twice that of papaverine hydrochloride.

[4] = crises 10 to 15 minutes after P.P.Q.
[5] = barium chloride contraction, Tyrode solution, 38° C, read-out: ED 50 (X), spasmolytic activity

Structure (SMILES)	a(X): blood-plaque aggregation inhibiting activity, Adrenaline (human blood-plaques; adrenaline-induced)	ratio of activities a(X)/a(R), Adrenaline (human blood-plaques)	a(X): blood-plaque aggregation inhibiting activity, Collagene (human blood-plaques; collagene-induced)	ratio of activities a(X)/a(R), Collagene (human blood-plaques)	LD50 at 168 h [1]	a (X): percentage activity, P.P.Q. [2, 4]	ratio of activity of X in relation to R, P.P.Q. [2]	ratio of activities a(X)/a(R), D.P.A. (human blood-plaques)	also measured
C=CCN(CC=C)CCC(=O)c1cc2ccccc2s1 [Compound 3]	64%	7 × 10^-1	17%	2.5 × 10^-1	1000 mg/kg	58%	0.75	–	–
OCCN(CCO)c1nc(N2CCCCC2)c2nc(N(CCO)CCO)nc(N3CCCCC3)c2n1 [Dipyridamole, reference compound]	–	–	–	–	–	–	–	–	a(R): blood-plaque aggregation inhibiting activity of reference, D.P.A. (human blood-plaques; D.P.A.-induced, reference 5 × 10^-4 g/ml, tested beside the compound of the same line): 72% and 53%; a(R): blood-plaque aggregation inhibiting activity of reference, Adrenaline (human blood-plaques; adrenaline-induced, reference 5 × 10^-4 g/ml, tested beside the compound of the same line): 96% and 91% and 90% and 80%; a(R): blood-plaque aggregation inhibiting activity of reference, Collagene (human blood-plaques; collagene-induced, reference 2 × 10^-4 g/ml, tested beside the compound of the same line): 36% and 42% and 67%; LD50 ([1]; po, reference product of the aggregation test, source of value not given): 2150 mg/kg
O=C(CCN1CCCCCC1)c1cc2ccccc2s1 [Compound 1, 1-(benzothien-2'yl) 3-N-perhydroazepino propanone oxalate]	6%	6 × 10^-2	91%	2.5	1200 mg/kg	–	–	7.5 × 10^-1	a(X): blood-plaque aggregation inhibiting activity, D.P.A. (human blood-plaques; D.P.A.-induced): 54%; activation at 10 µg/mL [3]: 66%; ratio P (X)/P (R) [3]: 0.87
O=C(OCC(O)CO)c1ccccc1Nc1ccnc2cc(Cl)ccc12 (stereo not shown) [Glafenine, ester of N-(7-chloro-4-quinolyl) anthrilic acid and 2,3-dihydroxy n. propanol, reference compound]	–	–	–	–	–	–	–	–	a (R): percentage activity of reference, P.P.Q. ([2]; 25 mg/kg orally, crises 10 to 15 minutes after P.P.Q., tested beside the compound of the same line): 71% and 77% and 75%
O=C(CCN1CCOCC1)c1cc2ccccc2s1 [Compound 5]	44%	4.6 × 10^-1	45%	1.25	> 1100 mg/kg	54%	0.76	–	–
CN(C)CCC(=O)c1cc2ccccc2s1 [Compound 2]	98%	1	74%	1.75	960 mg/kg	36%	0.51	1.4	relative activity, ratio of ED 50 (papaverine hydrochloride = R) (rat's isolated duodenum): 2.64; IC50 (rat's isolated duodenum; [5]): 1.6 µg/mL (≈ 6.86 µM); activation at 10 µg/mL [3]: 64%; ratio P (X)/P (R) [3]: 0.4
COc1ccc(Cc2nccc3cc(OC)c(OC)cc23)cc1OC [papaverine hydrochloride, reference compound]	–	–	–	–	–	–	–	–	IC50 (rat's isolated duodenum; read-out: ED 50 (R), spasmolytic activity of reference, barium chloride contraction, Tyrode solution, 38° C, tested beside the compound of the same line): 4.25 µg/mL
O=C(CCN1CCCCC1)c1cc2ccccc2s1 [Compound 4]	89%	1.1	91%	2.2	> 1100 mg/kg	25%	0.33	1.2	a(X): blood-plaque aggregation inhibiting activity, D.P.A. (human blood-plaques; D.P.A.-induced): 63%; relative activity, ratio of ED 50 (papaverine hydrochloride = R) (rat's isolated duodenum): 1.69; IC50 (rat's isolated duodenum; [5]): 3.1 µg/mL (≈ 11.3 µM)
